In patent EP4806898A1, “HETEROARYL DERIVATIVE COMPOUND AND USE THEREOF” (Voronoi Inc., priority 2023, dated 2025) one finds GI50 and ΔTm data, which are given here for 18 compounds.

The subject of one assay is UWB1.289 cells. In words: Cell proliferation inhibitory activity in BRCA1/2-mutant or HRD-positive cells (Cell Titer-Glo). The assay is classed as cell-based. The conditions noted are these: UWB1289; UWB1.289 cells, 144 hours after compound treatment, Cell Titer-Glo, 1.5 nM to 10 µM; read-out: GI50 UWB1.289 BRCA1 mut. A digest of the protocol:
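GI50 from CellTiter-Glo luminescence after 144 h compound exposure at 37 °C. Cells seeded at 1,000 per well in MEBM/RPMI1640 mix 16–24 h beforehand; […] from 10 µM down to 1.5 nM final (3-fold steps).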
(In general: Cellular ATP, detected with luciferase, serves as a proxy for viable cell number.)

A further assay addresses T1, recombinant USP1 protein (Homo sapiens, UniProt O94782, DEL125-138/DEL229-408/DEL608-737).
T1 sequence (O94782 with tags, fused parts or gaps DEL125-138/DEL229-408/DEL608-737): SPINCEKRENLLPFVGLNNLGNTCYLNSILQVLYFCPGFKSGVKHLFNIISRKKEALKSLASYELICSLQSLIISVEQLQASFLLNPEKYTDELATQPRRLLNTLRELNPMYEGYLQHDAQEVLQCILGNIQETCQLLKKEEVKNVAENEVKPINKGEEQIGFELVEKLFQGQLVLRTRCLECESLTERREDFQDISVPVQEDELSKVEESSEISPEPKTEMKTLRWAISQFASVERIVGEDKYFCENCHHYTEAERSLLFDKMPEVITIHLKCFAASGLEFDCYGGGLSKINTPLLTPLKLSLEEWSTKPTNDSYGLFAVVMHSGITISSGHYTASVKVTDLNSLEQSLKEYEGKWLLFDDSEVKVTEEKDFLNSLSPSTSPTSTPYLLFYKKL
The assay can be described thus: Binding affinity to recombinant USP1 protein by differential scanning fluorimetry. The conditions noted are these: compound 100 µM; 0.03 mg/mL USP1 (Δ1-66, Δ125-138, Δ229-408, Δ608-737); Tm with compound minus Tm with DMSO; read-out: ΔTm (°C). The gist of the method: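 Thermal shift readout: ΔTm is the compound-well melting temperature less the DMSO-well value, measured by real-time PCR. Compounds tested at 100 µM final against 0.03 mg/mL truncated USP1 (Δ1-66, Δ125-138, Δ229-408, Δ608-737) in pH 8.0 Tris buffer containing 150 mM NaCl, 2% glycerol, 1 mM DTT.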
On the technique in general: In DSF a fluorescence change marks the thermal transition of the protein.

SMILES strings stand for the structures.

Usually GI50 stands for the concentration that inhibits growth by half. One may read the ΔTm as the change in melting temperature against a reference sample. As to `COc1ncnc(C2CC2)c1-c1ncc2cc(C(=O)N3CC[C@@H](N(C)C)C3)n(Cc3ccc(-c4nc(C(F)(F)F)cn4C(C)C)cc3)c2n1` [Example 39, (R)-(2-(4-cyclopropyl-6-methoxypyrimidin-5-yl)-7-(4-(1-isopropyl-4-(trifluoromethyl)-1H-imidazol-2-yl)benzyl)-7H-pyrrolo[2,3-d]pyrimidin-6-yl) (3-(dimethylamino)pyrrolidin-1-yl)methanone], the GI50 with UWB1.289 cells fell in the range of 100 to 500 nM. The ΔTm at 100 µM on recombinant USP1 protein is over 5 °C.
On the same counts, the results for `COc1ncnc(C2CC2)c1-c1ncc2cc(C(=O)N3CC(F)(F)C3)n(Cc3ccc(-c4nc(C(F)(F)F)cn4C(C)C)cc3)c2n1` [Example 40, (2-(4-cyclopropyl-6-methoxypyrimid in-5-yl)-7-(4-(1-isopropyl-4-(trifluoromethyl)-1H-imidazol-2-yl)benzyl)-7H-pyrrolo[2,3-d]pyrimidin-6-yl) (3,3-difluoroazetid in-1-yl)methanone] are 100 to 500 nM and over 5 °C.
For `COc1ncnc(C2CC2)c1-c1ncc2cc(C(=O)NC3CCNC3)n(Cc3ccc(-c4nc(C(F)(F)F)cn4C(C)C)cc3)c2n1` (stereo not drawn) [Example 41, 2-(4-cyclopropyl-6-methoxypyrimidin-5-yl)-7-(4-(1-isopropyl-4-(trifluoromethyl)-1H-imidazol-2-yl)benzyl)-N-(pyrrolidin-3-yl)-7H-pyrrolo[2,3-d]pyrimidine-6-carboxamide], the GI50 with UWB1.289 cells is under 100 nM. For the same compound, the ΔTm at 100 µM at recombinant USP1 protein is over 5 °C.
The like results for `CCN(CC)C(=O)c1cc2cnc(-c3c(OC)ncnc3C3CC3)nc2n1Cc1ccc(-c2nc(C(F)(F)F)cn2C(C)C)cc1` [Example 42, 2-(4-cyclopropyl-6-methoxypyrimidin-5-yl)-N,N-diethyl-7-(4-(1-isopropyl-4-(trifluoromethyl)-1H-imidazol-2-yl)benzyl)-7H-pyrrolo[2,3-d]pyrimidine-6-carboxamide] were, in that order, 100 to 500 nM and over 5 °C.
For `CNC(=O)c1cc2cnc(-c3c(OC)ncnc3C3CC3)nc2n1Cc1ccc(-c2nc(C(F)(F)F)cn2C)cc1` [Example 43, 2-(4-cyclopropyl-6-methoxypyrimidin-5-yl)-N-methyl-7-(4-(1-methyl-4-(trifluoromethyl)-1H-imidazol-2-yl)benzyl)-7H-pyrrolo[2,3-d]pyrimidine-6-carboxamide], the GI50 with UWB1.289 cells was under 100 nM. Besides, the ΔTm at 100 µM at recombinant USP1 protein was over 5 °C.
For `COC(=O)CNC(=O)c1cc2cnc(-c3c(OC)ncnc3C3CC3)nc2n1Cc1ccc(-c2nc(C(F)(F)F)cn2C(C)C)cc1` [Example 45, methyl (2-(4-cyclopropyl-6-methoxypyrimid in-5-yl)-7-(4-(1-isopropyl-4-(trifluoromethyl)-1H-imidazol-2-yl)benzyl)-7H-pyrrolo[2,3-d]pyrimidine-6-carbonyl)glyci nate], in the assay with UWB1.289 cells, the GI50 was under 100 nM. In addition, on recombinant USP1 protein, the ΔTm at 100 µM is over 5 °C.
On to `COc1ncnc(C2CC2)c1-c1ncc2cc(C(=O)NCCN3CCCC3)n(Cc3ccc(-c4nc(C(F)(F)F)cn4C(C)C)cc3)c2n1` [Example 47, 2-(4-cyclopropyl-6-methoxypyrimidin-5-yl)-7-(4-(1-isopropyl-4-(trifluoromethyl)-1H-imidazol-2-yl)benzyl)-N-(2-(pyrrolidin-1-yl)ethyl)-7H-pyrrolo[2,3-d]pyrimidine-6-carboxamide], for which the GI50 in the assay on UWB1.289 cells is under 100 nM. Moreover, the ΔTm at 100 µM on recombinant USP1 protein is over 5 °C.
The like results for `COc1ncnc(C2CC2)c1-c1ncc2cc(C(=O)NC(C)C)n(Cc3ccc(-c4nc(C(F)(F)F)cn4C(C)C)cc3)c2n1` [Example 48, 2-(4-cyclopropyl-6-methoxypyrimidin-5-yl)-N-isopropyl-7-(4-(1-isopropyl-4-(trifluoromethyl)-1H-imidazol-2-yl)benzyl)-7H-pyrrolo[2,3-d]pyrimidine-6-carboxamide] were, in that order, under 100 nM and over 5 °C.
Consider `COc1ncnc(C2CC2)c1-c1ncc2cc(C(=O)NCc3ccccc3)n(Cc3ccc(-c4nc(C(F)(F)F)cn4C(C)C)cc3)c2n1` [Example 49, N-benzyl-2-(4-cyclopropyl-6-methoxypyrimidin-5-yl)-7-(4-(1-isopropyl-4-(trifluoromethyl)-1H-imidazol-2-yl)benzyl)-7H-pyrrolo[2,3-d]pyrimidine-6-carboxamide], for which, in the assay with UWB1.289 cells, the GI50 lay within 100 to 500 nM. On recombinant USP1 protein, the ΔTm at 100 µM was over 5 °C.
As for `COc1ncnc(C2CC2)c1-c1ncc2cc(C(=O)N3CC[C@H](N(C)C)C3)n(Cc3ccc(-c4nc(C(F)(F)F)cn4C(C)C)cc3)c2n1` [Example 50, (S)-(2-(4-cyclopropyl-6-methoxypyrimidin-5-yl)-7-(4-(1-isopropyl-4-(trifluoromethyl)-1H-imidazol-2-yl)benzyl)-7H-pyrrolo[2,3-d]pyrimidin-6-yl) (3-(dimethylamino)pyrrolidin-1-yl)methanone], in the assay on UWB1.289 cells, the GI50 was in the range of 100 to 500 nM. In addition, the ΔTm at 100 µM at recombinant USP1 protein was over 5 °C.
Turning to `COc1ncnc(C2CC2)c1-c1ncc2cc(C(=O)N3CCCC3)n(Cc3ccc(-c4nc(C(F)(F)F)cn4C(C)C)cc3)c2n1` [Example 51, (2-(4-cyclopropyl-6-methoxypyrimid in-5-yl)-7-(4-(1-isopropyl-4-(trifluoromethyl)-1H-imidazol-2-yl)benzyl)-7H-pyrrolo[2,3-d]pyrimidin-6-yl)(pyrrolidin-1-yl)methanone], in the assay on UWB1.289 cells, the GI50 was under 100 nM. Besides, on recombinant USP1 protein, the ΔTm at 100 µM is over 5 °C.
With `CCN(CC)CCNC(=O)c1cc2cnc(-c3c(OC)ncnc3C3CC3)nc2n1Cc1ccc(-c2nc(C(F)(F)F)cn2C(C)C)cc1` [Example 52, 2-(4-cyclopropyl-6-methoxypyrimidin-5-yl)-N-(2-(diethylamino)ethyl)-7-(4-(1-isopropyl-4-(trifluoromethyl)-1H-imidazol-2-yl)benzyl)-7H-pyrrolo[2,3-d]pyrimidine-6-carboxamide], in the assay on UWB1.289 cells, the GI50 fell in the range of 100 to 500 nM. Also, the ΔTm at 100 µM on recombinant USP1 protein is over 5 °C.
As to `COc1ncnc(C2CC2)c1-c1ncc2cc(C(=O)N3CC(N(C)C)C3)n(Cc3ccc(-c4nc(C(F)(F)F)cn4C(C)C)cc3)c2n1` [Example 53, (2-(4-cyclopropyl-6-methoxypyrimid in-5-yl)-7-(4-(1-isopropyl-4-(trifluoromethyl)-1H-imidazol-2-yl)benzyl)-7H-pyrrolo[2,3-d]pyrimidin-6-yl) (3-(dimethylamino)azetidin-1-yl)methanone], the GI50 in the assay on UWB1.289 cells is under 100 nM. Also, the ΔTm at 100 µM on recombinant USP1 protein is over 5 °C.
The like results for `COc1ncnc(C2CC2)c1-c1ncc2cc(C(=O)N3CCN4CCCC4C3)n(Cc3ccc(-c4nc(C(F)(F)F)cn4C(C)C)cc3)c2n1` (stereo not drawn) [Example 55, (2-(4-cyclopropyl-6-methoxypyrimid in-5-yl)-7-(4-(1-isopropyl-4-(trifluoromethyl)-1H-imidazol-2-yl)benzyl)-7H-pyrrolo[2,3-d]pyrimidin-6-yl) (hexahydrop yrrolo[1,2-a]pyrazin-2 (1H) - yl)methanone] were, in that order, 100 to 500 nM and over 5 °C.
As for `COc1ncnc(C2CC2)c1-c1ncc2cc(C(=O)N3CCOC4(CCC4)C3)n(Cc3ccc(-c4nc(C(F)(F)F)cn4C(C)C)cc3)c2n1` [Example 56, (2-(4-cyclopropyl-6-methoxypyrimid in-5-yl)-7-(4-(1-isopropyl-4-(trifluoromethyl)-1H-imidazol-2-yl)benzyl)-7H-pyrrolo[2,3-d]pyrimidin-6-yl) (5-oxa-8-azaspiro[3.5]nonan-8-yl)methanone], the GI50 in the assay with UWB1.289 cells fell in the range of 100 to 500 nM. Moreover, the ΔTm at 100 µM on recombinant USP1 protein is over 5 °C.
Take `CCN1CCN(C(=O)c2cc3cnc(-c4c(OC)ncnc4C4CC4)nc3n2Cc2ccc(-c3nc(C(F)(F)F)cn3C(C)C)cc2)CC1` [Example 57, (2-(4-cyclopropyl-6-methoxypyrimid in-5-yl)-7-(4-(1-isopropyl-4-(trifluoromethyl)-1H-imidazol-2-yl)benzyl)-7H-pyrrolo[2,3-d]pyrimidin-6-yl) (4-ethylpiperazin-1-yl)methanone]: in the assay with UWB1.289 cells, the GI50 is under 100 nM. For the same compound, the ΔTm at 100 µM on recombinant USP1 protein was over 5 °C.
On to `COc1ncnc(C2CC2)c1-c1ncc2cc(C(=O)NC[C@H]3CCCN3)n(Cc3ccc(-c4nc(C(F)(F)F)cn4C(C)C)cc3)c2n1` [Example 58, (R) -2-(4-cyclopropyl-6-methoxypyrimidin-5-yl)-7-(4-(1-isopropyl-4-(trifluoromethyl)-1H-imidazol-2-yl)benzyl)-N-(pyrrolidin-2-ylmethyl)-7H-pyrrolo[2,3-d]pyrimidine-6-carboxamide], for which the GI50 with UWB1.289 cells was under 100 nM. The ΔTm at 100 µM on recombinant USP1 protein was over 5 °C.
For `C#CCNC(=O)c1cc2cnc(-c3c(OC)ncnc3C3CC3)nc2n1Cc1ccc(-c2nc(C(F)(F)F)cn2C(C)C)cc1` [Example 60, 2-(4-cyclopropyl-6-methoxypyrimidin-5-yl)-7-(4-(1-isopropyl-4-(trifluoromethyl)-1H-imidazol-2-yl)benzyl)-N-(prop-2-yn-1-yl)-7H-pyrrolo[2,3-d]pyrimidine-6-carboxamide], the concentration for 50% growth inhibition (GI50) in the assay with UWB1.289 cells was under 100 nM. Moreover, the ΔTm at 100 µM on recombinant USP1 protein was over 5 °C.
